Where a SMILES comes first, the peptide text is derived from it. The star is where a group is joined. Biotin = O=C1N[C@H]2[C@H](CS[C@H]2CCCCC(=O)*)N1
Columns and labels:
PSMA = PSMA (Homo sapiens, UniProt Q04609); settings: reported in literature; cited from earlier work
HUVEC ERG = target: T1, HUVEC ERG (Homo sapiens, UniProt P11308); test: Pull-down from whole cell lysates normalized for ERG levels; type: binding
T1 construct: wild-type ERG expressed in human or murine endothelial cells; endogenous in cells; host or cells: HUVEC (human umbilical vein endothelial cells)

VCaP ERG = target: T2, VCaP ERG (Homo sapiens, UniProt P11308); test: as above; type: binding
T2 construct: endogenous in cells; host or cells: VCaP cells (ATCC): cultured cells, lysates or extracts, or VCaP xenograft tumours in nude mice
Experimental: (§1) Approximately 1 mg of soluble VCaP cell lysate prepared in RIPA buffer (Invitrogen) was incubated with varying amounts of biotinylated peptides for 2 hours at 4° C. HaloLink agarose beads (20 μl) were added to the peptide-lysate mixture and incubated for an additional 4 hours. Beads were then pelleted by centrifugation, washed three times in PBS-T and loaded into an SDSPAGE gel followed by Western blot analysis. Total VCaP cell lysate was loaded for positive control.
It was then determined whether RI-EIP affects normal ERG function.

wild-type ERG (wtERG) = target: T3, wild-type ERG (wtERG) (Homo sapiens, UniProt P11308); test: Pull-down of purified recombinant proteins with biotin-peptides; type: binding; settings: purified recombinant protein
T3 construct: cDNAs encoding full-length ERG and GUS were cloned into pDEST10 vector; His; made in house; host or cells: SF9 insect cells (Bac-to-Bac baculovirus)
Experimental: (A) Pull-down experiment was performed by incubating purified recombinant proteins and biotin-peptides. (B-C) Representative sensorgrams for both wtERG and ERG_Y373A binding to EIP1. Real-time binding was measured by immobilization of biotinylated proteins to the streptavidin biosensors and subsequent interactions with varying concentrations of synthetic peptides as indicated. (D) Steady-state analysis of real-time binding data for wtERG/ERG_Y373A and synthetic peptides. (E) Electrophoretic mobility shift assay (EMSA) for ERG and ETS binding sequence (EBS).

[1] = human, in vivo; cited from earlier work
[2] = target: T4, TMPRSS2:ERG gene fusion product (endogenous ERG) (Homo sapiens, UniProt P11308); test: Biotin-peptide pull-down from VCaP cell lysates, immunoblot and mass spectrometry; type: binding; settings: 53 kDa band of pull-downs, mass spectrometry
T4 construct: endogenous in cells; host or cells: VCaP cells (ATCC): cultured cells, lysates or extracts, or VCaP xenograft tumours in nude mice
Experimental: as §1
The samples were treated with SDS loading buffer supplied with 10 mM DTT for 5 min at 85° C. The proteins were alkylated by adding iodoacetamide to the final concentration of 15 mM. The samples were subjected to SDS-PAGE and the whole lanes were cut out and digested with trypsin in-gel for 2 hours. […]
The resulting spectrum files were transformed into MGF format by MSConvert software and interrogated by MASCOT 2.4 search engine using human UniProt database version 15 concatenated with reverse sequences for estimation of false discovery rate (FDR) and with a list of common contaminants. […] The peptide FDR was calculated as 2×(decoy_hits)/(target+decoy hits). Spectral counts for all detected proteins were assembled using an in-house written Python script. […]

ERG [3] = target: T5, ERG (Homo sapiens, UniProt P11308)
T5 sequence (P11308 1-479): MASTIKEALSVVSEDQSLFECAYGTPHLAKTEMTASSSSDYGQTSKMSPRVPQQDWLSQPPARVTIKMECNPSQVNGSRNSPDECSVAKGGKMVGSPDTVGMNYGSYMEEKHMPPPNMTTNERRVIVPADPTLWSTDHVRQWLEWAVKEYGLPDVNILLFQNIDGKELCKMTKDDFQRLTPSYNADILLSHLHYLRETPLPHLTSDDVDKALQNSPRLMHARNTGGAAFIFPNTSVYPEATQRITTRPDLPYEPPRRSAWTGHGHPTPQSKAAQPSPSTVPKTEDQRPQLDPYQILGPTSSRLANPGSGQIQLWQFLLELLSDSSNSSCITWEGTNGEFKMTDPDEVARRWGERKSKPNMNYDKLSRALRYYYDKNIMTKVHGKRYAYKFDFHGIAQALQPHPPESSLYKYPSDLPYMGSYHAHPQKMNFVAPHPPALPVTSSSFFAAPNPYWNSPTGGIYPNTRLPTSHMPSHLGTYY
Text: (§2) Halo fusion proteins were expressed using the TNT® SP6 High-Yield Wheat Germ kit (Promega) following the manufacturer's protocol.

ERG_Y373A = ERG_Y373A (Homo sapiens, UniProt P11308, Y373A)
ERG_Y373A, sequence (P11308 whole entry Y373A): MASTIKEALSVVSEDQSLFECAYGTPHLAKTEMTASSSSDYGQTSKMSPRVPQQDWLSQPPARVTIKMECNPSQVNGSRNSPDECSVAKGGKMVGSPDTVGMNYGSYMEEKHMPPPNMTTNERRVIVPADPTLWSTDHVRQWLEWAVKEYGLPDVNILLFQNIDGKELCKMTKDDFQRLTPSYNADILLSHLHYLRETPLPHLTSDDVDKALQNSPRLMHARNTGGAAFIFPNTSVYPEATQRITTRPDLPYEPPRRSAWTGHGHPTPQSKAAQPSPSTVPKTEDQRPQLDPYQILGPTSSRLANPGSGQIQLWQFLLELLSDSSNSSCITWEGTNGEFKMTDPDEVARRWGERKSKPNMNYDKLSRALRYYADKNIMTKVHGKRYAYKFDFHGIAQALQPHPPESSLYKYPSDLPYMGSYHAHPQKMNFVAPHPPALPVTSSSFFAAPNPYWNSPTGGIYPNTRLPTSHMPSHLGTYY
Text: as §2

ERG [4] = target: T5, ERG; remark: listed apart in the source
Experimental: The interaction coefficients between ERG and synthetic peptides or peptidomimetics were determined by biolayer interferometry technology using the Octet Red system (ForteBio). Purified ERG and GUS proteins were biotinylated by EZLink NHS-PEG4 Biotinylation Kit (Thermo Scientific) following the manufacturer's protocol and any unincorporated biotin was removed from the reactions with Zeba 2 ml desalt columns (Thermo). Biotinylated proteins (500 μg/ml) were then incubated with super streptavidin biosensors in binding buffer (20 mM HEPES pH 7.4, 150 mM NaCl), blocked with 10 μg/ml biocytin and washed three times in binding buffer. Peptides were serially diluted in binding buffer, mixed with the protein-coupled biosensors and peptidomimetic:protein association/dissociation was monitored for 10 min at 25° C. Nonspecific binding from the signal obtained from peptidomimetic:GUS interactions was subtracted from that of peptidomimetic:ERG interactions and baseline signal drift was controlled by monitoring immobilized ERG without peptide. Octet Red analysis software was used to analyze the data.

GRPR = GRPR (Homo sapiens, UniProt P30550); settings: Peptides 13, 775 (1992); cited from earlier work
GRPR, sequence (P30550 whole entry, species assumed): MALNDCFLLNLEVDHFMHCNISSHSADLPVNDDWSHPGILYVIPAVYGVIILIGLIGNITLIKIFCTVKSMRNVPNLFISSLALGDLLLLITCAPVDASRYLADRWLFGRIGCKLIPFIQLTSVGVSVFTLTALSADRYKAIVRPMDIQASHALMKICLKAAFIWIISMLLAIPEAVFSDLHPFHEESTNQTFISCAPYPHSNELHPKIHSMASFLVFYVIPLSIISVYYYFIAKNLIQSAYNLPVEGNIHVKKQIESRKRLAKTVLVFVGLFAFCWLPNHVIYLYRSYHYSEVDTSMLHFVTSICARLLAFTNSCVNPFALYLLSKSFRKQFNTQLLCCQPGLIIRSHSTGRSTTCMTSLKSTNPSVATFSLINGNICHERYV

PSMA, sequence (Q04609 whole entry): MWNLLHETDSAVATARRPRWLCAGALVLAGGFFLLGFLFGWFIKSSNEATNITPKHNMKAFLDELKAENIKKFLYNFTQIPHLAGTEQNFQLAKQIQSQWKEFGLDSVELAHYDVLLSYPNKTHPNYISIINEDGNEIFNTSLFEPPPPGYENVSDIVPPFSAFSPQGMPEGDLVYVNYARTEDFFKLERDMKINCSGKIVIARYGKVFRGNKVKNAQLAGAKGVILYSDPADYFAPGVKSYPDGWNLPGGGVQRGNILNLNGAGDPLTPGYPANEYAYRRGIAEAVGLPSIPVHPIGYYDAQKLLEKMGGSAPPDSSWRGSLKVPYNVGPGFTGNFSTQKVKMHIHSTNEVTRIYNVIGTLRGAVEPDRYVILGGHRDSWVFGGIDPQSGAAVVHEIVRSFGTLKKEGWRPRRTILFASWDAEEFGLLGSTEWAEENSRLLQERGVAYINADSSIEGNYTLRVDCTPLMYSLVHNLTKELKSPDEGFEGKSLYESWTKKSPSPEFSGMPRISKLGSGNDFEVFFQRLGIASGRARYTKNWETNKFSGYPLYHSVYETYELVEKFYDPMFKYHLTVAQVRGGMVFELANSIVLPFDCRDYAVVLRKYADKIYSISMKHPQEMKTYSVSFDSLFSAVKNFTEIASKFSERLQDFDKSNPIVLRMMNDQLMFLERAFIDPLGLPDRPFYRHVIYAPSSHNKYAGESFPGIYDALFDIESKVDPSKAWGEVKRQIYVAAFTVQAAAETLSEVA

**Q.** With `O=C(O)CC[C@H](NC(=O)N[C@@H](CCCCN(Cc1ccc(Br)cc1)C(=O)CCOCCOCCOCCOCCOCCOCCOCCOCCOCCOCCOCCOCCNC(=O)CCCC[C@@H]1SC[C@@H]2NC(=O)N[C@@H]21)C(=O)O)C(=O)O` [Analogue 3] as the compound, how does the IC50 (PSMA) read?
**A.** 1.3 nM

**Q.** With `CC(C)C[C@H](NC(=O)[C@H](Cc1ccc(O)cc1)NC(=O)[C@@H]1CCCN1C(=O)[C@@H]1CCCN1C(=O)[C@H](CC(C)C)NC(=O)CCCC[C@@H]1SC[C@@H]2NC(=O)N[C@@H]21)C(=O)N[C@@H](Cc1ccccc1)C(=O)N[C@H](C(=O)O)[C@@H](C)O` [Biotin-EIP1, Biotin-LPPYLFT] (Biotin-LPPYLFT-OH) as the compound, how does the “amount of cell lysate for ERG pull-down” value (HUVEC ERG) read?
**A.** 8 mg/mL

**Q.** What about the “amount of cell lysate for ERG pull-down” value (VCaP ERG) of the same compound?
**A.** 0.25 mg/mL

**Q.** What about the “pull-down of wtERG” value (wild-type ERG (wtERG)) of the same compound?
**A.** pulled down

**Q.** Which half life [1] does the source give for `CCNC(=O)[C@@H]1CCCN1C(=O)[C@H](CCCNC(=N)N)NC(=O)[C@H](CC(C)C)NC(=O)[C@@H](CC(C)C)NC(=O)[C@H](Cc1ccc(O)cc1)NC(=O)[C@H](CO)NC(=O)[C@H](Cc1c[nH]c2ccccc12)NC(=O)[C@H](Cc1c[nH]cn1)NC(=O)[C@@H]1CCC(=O)N1` [Leuprolide, pyro-EHWSY1LRP-NHEt] here?
**A.** 3 h

**Q.** For `CC(C)C[C@H](NC(=O)CCCC[C@@H]1SC[C@@H]2NC(=O)N[C@@H]21)C(=O)N[C@@H](CO)C(=O)N[C@@H](Cc1ccccc1)C(=O)NCC(=O)N[C@@H](CO)C(=O)N[C@@H](CC(C)C)C(=O)N1CCC[C@H]1C(=O)O` [biotin-EIP2, Biotin-LSFGSLP] (Biotin-LSFGSLP-OH), which “spectral counts for the ERG peptide NTGGAAFIFPNTSVYPEATQR” value [2] is on record?
**A.** 111 spectral counts

**Q.** And the “interaction with ERG” value (ERG [3])?
**A.** interact strongly

**Q.** And the “interaction with ERG (Y373A)” value (ERG_Y373A)?
**A.** No interaction was detected

**Q.** For “H-PYLFT-NH2 [Compound 5PT-N, NH2-PYLFT-NH2]”, which “binding to ERG” value (ERG [4]) is on record?
**A.** most potent truncated peptides

**Q.** For fQWAVaHLM-OMe, which “affinity as GRPR antagonist” value (GRPR) is on record?
**A.** good affinity
